Data reported in patent US20260232763A1 (Kadmon Corporation, LLC, priority 2023, published 2026).
“And” between values parts separate entries of the source, which are not always exact repeats. Equal entries are not always repeated. Where two headings read alike, the source gives them in different places.

Assays:
CYP3A4 = CYP3A4 (Homo sapiens, UniProt P08684); experiment: in vitro metabolism; type: in vitro ADME; settings: in vitro assessments
clinical = settings: male, human, in vivo
Procedure: On Day 10, the victim and perpetrator IMPs were administered simultaneously.
On the evening before each dose, participants were provided with a light snack and were required to fast from all food and drink (except water) for a minimum of 10 hours until the following morning. All study interventions were administered in the fed state, following completion of a standard breakfast (with dosing planned to occur 30 minutes after the start of the breakfast).
The PK parameters underwent a natural logarithmic transformation and were analyzed using a mixed effect modelling technique. Adjusted geometric mean ratios and 90% confidence intervals (CIs) of the ratios were obtained for each comparison. The ratio was defined as test/reference. In addition, the intraparticipant variability were also presented. […] No formal interim analyses were performed for this study.

[1] = Example 3 Part 2 (Regimen B) dabigatran etexilate + belumosudil plasma PK; type: in vivo, human; settings: for half-life: read-out: T1/2, geometric mean (converted)
Procedure: The ratio was defined as test/reference. In addition, the intraparticipant variability were also presented. […] No formal interim analyses were performed for this study.

pregnant rats = settings: cited from earlier work
[2] = dosage range of 200 and 400 mg; cited from earlier work
[3] = healthy subjects, cited from earlier work
human serum albumin = human serum albumin (Homo sapiens, UniProt P02768); settings: in vitro; cited from earlier work
P-gp = P-gp (Homo sapiens, UniProt P08183); settings: in vitro, cited from earlier work
OATP1B1 = target: T1, OATP1B1 (Homo sapiens, UniProt Q9Y6L6); settings: in vitro, at clinically relevant concentrations; cited from earlier work
T1 sequence (Q9Y6L6 1-691): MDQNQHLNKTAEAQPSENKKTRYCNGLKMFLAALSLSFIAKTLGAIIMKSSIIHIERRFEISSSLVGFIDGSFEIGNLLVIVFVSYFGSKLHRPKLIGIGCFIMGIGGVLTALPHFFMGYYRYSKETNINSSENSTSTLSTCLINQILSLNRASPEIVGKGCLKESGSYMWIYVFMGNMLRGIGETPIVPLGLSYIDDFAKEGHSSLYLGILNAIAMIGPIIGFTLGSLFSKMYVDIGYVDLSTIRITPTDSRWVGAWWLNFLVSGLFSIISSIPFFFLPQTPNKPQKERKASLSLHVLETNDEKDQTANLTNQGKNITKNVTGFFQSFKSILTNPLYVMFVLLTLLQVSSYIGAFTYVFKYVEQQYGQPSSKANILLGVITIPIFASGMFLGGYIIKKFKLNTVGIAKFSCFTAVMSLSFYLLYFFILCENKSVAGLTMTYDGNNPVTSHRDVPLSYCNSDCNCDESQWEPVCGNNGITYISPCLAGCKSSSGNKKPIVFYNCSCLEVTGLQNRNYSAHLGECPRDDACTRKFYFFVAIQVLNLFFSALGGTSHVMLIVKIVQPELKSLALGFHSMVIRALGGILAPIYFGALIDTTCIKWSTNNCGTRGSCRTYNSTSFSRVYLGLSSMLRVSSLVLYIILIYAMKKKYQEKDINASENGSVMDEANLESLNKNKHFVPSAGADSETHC

CYP2C19 = CYP2C19 (Homo sapiens, UniProt P33261); settings: in vitro; cited from earlier work
CYP2D6 = CYP2D6 (Homo sapiens, UniProt P10635); settings: in vitro; cited from earlier work
UGT1A9 = target: T2, UGT1A9 (Homo sapiens, UniProt O60656); settings: in vitro; cited from earlier work
T2 sequence (O60656 26-530): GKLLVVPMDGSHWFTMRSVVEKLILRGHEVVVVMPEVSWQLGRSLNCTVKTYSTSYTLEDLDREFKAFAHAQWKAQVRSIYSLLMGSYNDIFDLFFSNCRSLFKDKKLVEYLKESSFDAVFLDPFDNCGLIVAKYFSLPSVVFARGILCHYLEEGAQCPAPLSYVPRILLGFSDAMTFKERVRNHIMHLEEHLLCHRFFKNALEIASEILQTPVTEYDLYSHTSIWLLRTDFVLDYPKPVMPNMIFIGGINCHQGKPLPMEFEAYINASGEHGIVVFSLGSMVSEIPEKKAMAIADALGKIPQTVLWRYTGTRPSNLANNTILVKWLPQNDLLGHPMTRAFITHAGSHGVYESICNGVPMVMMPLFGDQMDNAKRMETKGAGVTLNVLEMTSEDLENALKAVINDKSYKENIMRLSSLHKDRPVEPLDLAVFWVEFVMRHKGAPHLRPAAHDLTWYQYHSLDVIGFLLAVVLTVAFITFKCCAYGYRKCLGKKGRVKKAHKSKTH

[4] = test system: bacterial mutagenicity (Ames); settings: cited from earlier work
[5] = test system: human peripheral blood lymphocytes (HPBL); settings: chromosome aberration; cited from earlier work
rats [6] = settings: oral; cited from earlier work
dogs = settings: cited from earlier work
rats [7] = settings: cited from earlier work
[8] = Part 2, Belumosudil alone (Day 5), 200 mg
[9] = Part 2, Dabigatran etexilate + belumosudil (Day 12), 200 mg QD
[10] = single oral dose of radiolabeled belumosudil

Chain of P-gp (P08183 whole entry): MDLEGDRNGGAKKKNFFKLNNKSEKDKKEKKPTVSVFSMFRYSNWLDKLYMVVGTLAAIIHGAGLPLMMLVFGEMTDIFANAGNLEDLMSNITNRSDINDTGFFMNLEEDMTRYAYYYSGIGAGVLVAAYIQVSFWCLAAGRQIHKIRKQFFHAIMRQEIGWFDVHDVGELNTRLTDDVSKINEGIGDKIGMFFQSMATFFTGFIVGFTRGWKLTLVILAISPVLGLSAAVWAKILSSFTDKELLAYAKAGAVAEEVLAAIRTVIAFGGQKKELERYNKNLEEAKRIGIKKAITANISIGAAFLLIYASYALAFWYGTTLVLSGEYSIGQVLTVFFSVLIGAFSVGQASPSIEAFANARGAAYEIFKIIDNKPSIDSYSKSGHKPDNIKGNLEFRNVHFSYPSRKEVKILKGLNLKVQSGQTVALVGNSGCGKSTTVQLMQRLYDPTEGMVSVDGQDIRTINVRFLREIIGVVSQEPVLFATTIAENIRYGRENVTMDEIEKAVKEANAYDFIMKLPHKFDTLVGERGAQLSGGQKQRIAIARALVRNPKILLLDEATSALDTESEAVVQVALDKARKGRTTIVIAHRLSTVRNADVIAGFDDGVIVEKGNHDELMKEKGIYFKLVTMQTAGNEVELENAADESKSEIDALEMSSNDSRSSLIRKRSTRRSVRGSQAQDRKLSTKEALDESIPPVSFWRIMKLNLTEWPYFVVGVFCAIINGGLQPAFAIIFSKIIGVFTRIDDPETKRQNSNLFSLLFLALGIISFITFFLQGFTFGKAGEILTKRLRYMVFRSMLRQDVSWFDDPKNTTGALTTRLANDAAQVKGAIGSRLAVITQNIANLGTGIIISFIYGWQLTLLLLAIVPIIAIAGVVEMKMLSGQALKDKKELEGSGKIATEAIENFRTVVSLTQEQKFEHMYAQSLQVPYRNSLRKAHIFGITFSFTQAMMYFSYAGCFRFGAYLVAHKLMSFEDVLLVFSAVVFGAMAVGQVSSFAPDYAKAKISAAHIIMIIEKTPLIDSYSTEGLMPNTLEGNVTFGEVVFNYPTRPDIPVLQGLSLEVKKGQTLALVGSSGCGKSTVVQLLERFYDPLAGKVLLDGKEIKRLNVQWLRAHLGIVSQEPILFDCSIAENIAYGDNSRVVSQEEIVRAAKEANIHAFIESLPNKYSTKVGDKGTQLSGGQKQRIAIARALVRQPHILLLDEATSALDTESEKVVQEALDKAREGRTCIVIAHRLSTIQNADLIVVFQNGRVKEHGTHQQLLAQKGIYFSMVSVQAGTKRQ
Chain of human serum albumin (P02768 25-609): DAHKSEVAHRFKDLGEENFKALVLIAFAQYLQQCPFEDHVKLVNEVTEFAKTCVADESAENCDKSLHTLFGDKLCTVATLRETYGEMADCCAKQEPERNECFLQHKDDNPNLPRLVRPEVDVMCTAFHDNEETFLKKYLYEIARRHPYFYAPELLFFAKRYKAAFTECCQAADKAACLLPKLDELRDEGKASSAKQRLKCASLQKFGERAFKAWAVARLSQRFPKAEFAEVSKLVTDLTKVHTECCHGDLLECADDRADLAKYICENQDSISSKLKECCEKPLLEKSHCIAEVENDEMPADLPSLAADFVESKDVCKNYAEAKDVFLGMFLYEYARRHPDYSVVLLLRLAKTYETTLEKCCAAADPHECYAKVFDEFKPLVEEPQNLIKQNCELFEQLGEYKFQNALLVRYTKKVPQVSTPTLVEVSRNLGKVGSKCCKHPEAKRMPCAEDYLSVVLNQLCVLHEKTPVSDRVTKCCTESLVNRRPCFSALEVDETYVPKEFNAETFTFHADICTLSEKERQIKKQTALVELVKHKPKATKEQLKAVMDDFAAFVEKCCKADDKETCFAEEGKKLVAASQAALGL
Chain of CYP2D6 (P10635 whole entry): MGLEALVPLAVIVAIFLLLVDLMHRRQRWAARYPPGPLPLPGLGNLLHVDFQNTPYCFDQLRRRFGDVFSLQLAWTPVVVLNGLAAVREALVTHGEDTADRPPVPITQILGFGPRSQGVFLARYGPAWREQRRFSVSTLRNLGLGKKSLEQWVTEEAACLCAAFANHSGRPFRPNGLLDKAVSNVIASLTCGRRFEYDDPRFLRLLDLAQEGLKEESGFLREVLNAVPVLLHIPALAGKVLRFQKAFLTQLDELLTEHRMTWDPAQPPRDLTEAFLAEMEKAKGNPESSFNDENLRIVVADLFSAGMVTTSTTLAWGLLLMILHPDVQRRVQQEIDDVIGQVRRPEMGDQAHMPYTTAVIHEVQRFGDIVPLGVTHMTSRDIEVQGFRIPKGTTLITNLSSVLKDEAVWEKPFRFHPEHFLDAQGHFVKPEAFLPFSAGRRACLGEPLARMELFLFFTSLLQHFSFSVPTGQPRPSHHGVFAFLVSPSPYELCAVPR
Chain of CYP3A4 (P08684 whole entry): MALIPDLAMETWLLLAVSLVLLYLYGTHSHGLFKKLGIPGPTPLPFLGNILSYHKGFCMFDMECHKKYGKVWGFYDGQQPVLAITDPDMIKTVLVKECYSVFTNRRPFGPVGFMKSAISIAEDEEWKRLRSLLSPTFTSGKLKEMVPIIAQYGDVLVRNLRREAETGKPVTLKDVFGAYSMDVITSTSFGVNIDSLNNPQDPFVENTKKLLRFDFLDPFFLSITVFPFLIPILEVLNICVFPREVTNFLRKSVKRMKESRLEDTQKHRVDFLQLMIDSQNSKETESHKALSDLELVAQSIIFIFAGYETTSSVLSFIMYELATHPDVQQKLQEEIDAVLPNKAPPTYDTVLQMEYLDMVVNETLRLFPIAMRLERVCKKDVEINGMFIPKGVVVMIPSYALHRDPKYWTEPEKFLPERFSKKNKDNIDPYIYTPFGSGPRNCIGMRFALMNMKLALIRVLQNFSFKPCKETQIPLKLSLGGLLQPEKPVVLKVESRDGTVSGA
Chain of CYP2C19 (P33261 whole entry): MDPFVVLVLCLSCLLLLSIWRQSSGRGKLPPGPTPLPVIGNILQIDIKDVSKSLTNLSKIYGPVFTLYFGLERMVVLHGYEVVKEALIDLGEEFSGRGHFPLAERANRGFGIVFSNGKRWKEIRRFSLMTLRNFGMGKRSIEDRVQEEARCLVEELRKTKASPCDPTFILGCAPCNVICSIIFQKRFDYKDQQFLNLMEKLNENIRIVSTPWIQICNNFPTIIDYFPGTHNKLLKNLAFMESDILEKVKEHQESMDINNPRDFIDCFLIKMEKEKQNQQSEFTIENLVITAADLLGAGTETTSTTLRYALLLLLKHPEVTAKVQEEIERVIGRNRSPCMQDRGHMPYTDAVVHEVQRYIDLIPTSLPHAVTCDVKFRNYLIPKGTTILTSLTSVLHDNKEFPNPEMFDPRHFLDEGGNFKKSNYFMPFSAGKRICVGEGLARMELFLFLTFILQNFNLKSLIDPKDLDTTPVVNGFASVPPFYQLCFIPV

In the case of `CC(C)NC(=O)COc1cccc(-c2nc(Nc3ccc4[nH]ncc4c3)c3ccccc3n2)c1` [belumosudil, 2-{3-[4-(1H-indazol-5-ylamino)-2-quinazolinyl]phenoxy}-N-(propan-2-yl) acetamide], the metabolism (CYP3A4) is reported as “primarily dependent on cytochrome P450 CYP3A4 activity”, the Tmax (clinical) is reported as 1.5 to 3 h and the “increase of exposures (Cmax and AUC) following multiple dosing” value (clinical) is reported as 1.30-1.49 fold. For the same molecule, the “AUC(0-last), geometric mean” value (clinical; 200 mg) was 9200 ng·h/mL, the “AUC(0-tau), geometric mean” value (clinical; 200 mg) was 9330 ng·h/mL and the “AUC(0-tau), geometric mean” value [1, 8] was 8490 ng·h/mL. For the same molecule, the “Cmax, geometric mean” value [1, 8] was 1710 ng/mL, the “T1/2, geometric mean” value [1, 8] was 6.199 h and the “AUC(0-last), geometric mean” value [1, 9] was 12 000 ng · h/mL. The “Cmax, geometric mean” value [1, 9] was 2180 ng/mL, the “T1/2, geometric mean” value [1, 9] was 10.371 h and the AUC ([1]; male, human, plasma, oral, 200 mg QD, read-out: AUC(0-tau), geometric mean) was 11000 ng·h/mL. The half-life ([1]; male, human, plasma, oral, 200 mg, Part 2, Belumosudil alone (Day 5), 200 mg) was ~6 h, the half-life ([1]; male, human, plasma, oral, 200 mg, Part 2, Dabigatran etexilate + belumosudil (Day 12), 200 mg QD) was ~10 h and the Tmax ([1]; male, human, plasma, oral, 200 mg, read-out: median Tmax) was 1.5 to 2 h. For the same molecule, the “participants reporting a TEAE” value (52 participants, Grade 1 (mild)) was 3.8%, the “number of TEAEs judged related to belumosudil” value (headache) was 1 event and the “safety and tolerability when coadministered with raltegravir, dabigatran etexilate, rosuvastatin calcium” value (healthy male participants, 200 mg QD) was “safe and well tolerated”. For the same molecule, the “serious adverse events or TEAEs leading to withdrawal or death” value (in vivo) was “No serious adverse events”, the “maternal exposures (AUC) with adverse developmental outcomes, times the human exposure (AUC) at the recommended dose” value (pregnant rats; pregnant rats, period of organogenesis) was ≥ 3 times and the “dose with fetal malformations” value (pregnant rats; rats, oral, pilot study) was ≥ 50 mg/kg/day. For the same molecule, the “dose with maternal toxicity (reduced body weight gain)” value (pregnant rats; rats, oral, pilot study) was 150 mg/kg/day and 300 mg/kg/day, the “Cmax and AUC increase with dose” value [2] was “approximately proportional” and the “AUC increase with high-fat and high-calorie meal compared to fasted state” value ([3]; single dose) was 2 times. For the same molecule, the “Cmax increase with high-fat and high-calorie meal compared to fasted state” value ([3]; single dose) was 2.2 times, the “radioactivity recovered in feces” value [3, 10] was 85% and the “radioactivity recovered in feces as unchanged” value [3, 10] was 30%. The “radioactivity recovered in urine” value [3, 10] was “less than 5%”, the “binding to human serum albumin” value (human serum albumin) was 99.9% and the P-gp inhibition (P-gp; at clinically relevant concentrations) was “inhibits”. The P-gp substrate status (P-gp) was “substrate of P-gp”, the OATP1B1 inhibition (OATP1B1) was “inhibits” and the CYP2C19 inhibition (CYP2C19) was “inhibitor”. For the same molecule, the CYP2D6 inhibition (CYP2D6) was “inhibitor”, the UGT1A9 inhibition (UGT1A9) was “inhibitor” and the genotoxicity [4] was “not genotoxic”. For the same molecule, the genotoxicity [5] was “not genotoxic”, the “dose with abnormal sperm findings and testes/epididymis organ changes in male rats” value (rats [6]) was 275 mg/kg/day and the “dose with adverse findings in female rats (increased pre- or post-implantation loss, decreased number of viable embryos)” value (rats [6]) was 275 mg/kg/day. The “dose with reduced fertility in treated males or females” value (rats [6]) was 275 mg/kg/day, the “dose with spermatozoa degeneration” value (dogs) was 35 mg/kg/day and the “dose with decreased follicular development in ovaries” value (rats [7]) was 275 mg/kg/day.
